This passage reports T/C results from PubChem BioAssay AID248 (DTP/NCI, 2004).

This assay has as its system L1210 leukemia ip in BDF1 mice, survival T/C. The assay is described as follows: NCI In Vivo Anticancer Drug Screen. Data for tumor model L1210 Leukemia (intraperitoneal) in B6D2F1 (BDF1) mice. Conditions: endpoint: mean survival time, higher = longer survival. In a few lines:
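Antitumor effect is assessed in tumor-bearing animals. Survival in the compound arm is compared with a vehicle-dosed control arm and expressed as their quotient.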

The mark [1] stands for this setting: dose: 100.0 mg/kg/injection, schedule: Q01DX001 (ip), vehicle: carboxymethylcellulose (CMC).
Where [2] appears, read: dose: 200.0 mg/kg/injection, schedule: Q01DX001 (ip), vehicle: carboxymethylcellulose (CMC).
Setting [3] is: dose: 400.0 mg/kg/injection, schedule: Q01DX001 (ip), vehicle: carboxymethylcellulose (CMC).
The mark [4] stands for this setting: dose: 100.0 mg/kg/injection, schedule: Q04DX003 (ip), vehicle: saline with Tween-80.
Where [5] appears, read: dose: 200.0 mg/kg/injection, schedule: Q04DX003 (ip), vehicle: saline with Tween-80.
Setting [6] is: dose: 400.0 mg/kg/injection, schedule: Q04DX003 (ip), vehicle: saline with Tween-80.
Where [7] appears, read: dose: 50.0 mg/kg/injection, schedule: Q01DX001 (ip), vehicle: saline.
Setting [8] is: dose: 100.0 mg/kg/injection, schedule: Q01DX001 (ip), vehicle: saline.
Where [9] appears, read: dose: 200.0 mg/kg/injection, schedule: Q01DX001 (ip), vehicle: saline.
Where [10] appears, read: dose: 400.0 mg/kg/injection, schedule: Q01DX001 (ip), vehicle: saline.
[11] abbreviates: dose: 100.0 mg/kg/injection, schedule: Q01DX009 (ip), vehicle: saline with Tween-80.
[12] abbreviates: dose: 100.0 mg/kg/injection, schedule: Q04DX002 (ip), vehicle: Klucel (hydroxypropylcellulose) (HPC).
The mark [13] stands for this setting: dose: 200.0 mg/kg/injection, schedule: Q04DX002 (ip), vehicle: Klucel (hydroxypropylcellulose) (HPC).
[14] abbreviates: dose: 400.0 mg/kg/injection, schedule: Q04DX002 (ip), vehicle: Klucel (hydroxypropylcellulose) (HPC).

Where “and” joins values, the source holds several entries; their conditions need not be identical. Equal values may be shown once. Toxic doses and inconclusive results are not listed.

As to `Cc1c(Cl)cccc1-n1c(C)nc2ccccc2c1=O`, the T/C is 93 % of control (dose: 50.0 mg/kg/injection, schedule: Q01DX001 (ip), vehicle: carboxymethylcellulose (CMC)); 98 % of control under setting [1]; 93 % of control under setting [2]; 102 % of control under setting [3].
Turning to `C(=C\c1cc[n+](CCc2ccccc2)cc1)/c1ccccc1`, the T/C was 110 % of control (dose: 6.25 mg/kg/injection, schedule: Q04DX003 (ip), vehicle: saline with Tween-80); 89 % of control (dose: 12.5 mg/kg/injection, schedule: Q04DX003 (ip), vehicle: saline with Tween-80); 101 % of control (dose: 25.0 mg/kg/injection, schedule: Q04DX003 (ip), vehicle: saline with Tween-80).
In the case of `O=C1c2cc(F)ccc2-c2cc([N+](=O)[O-])ccc21`, the T/C under setting [1] is 94 % of control, the T/C under setting [2] was 94 % of control and the T/C under setting [3] was 99 % of control.
With `CC(=O)c1ccc2ccc3cccc4ccc1c2c34`, the T/C (dose: 100.0 mg/kg/injection, schedule: Q04DX002 (ip), vehicle: gum acacia) is 96 % of control; the T/C (dose: 200.0 mg/kg/injection, schedule: Q04DX002 (ip), vehicle: gum acacia) was 96 % of control; the T/C (dose: 400.0 mg/kg/injection, schedule: Q04DX002 (ip), vehicle: gum acacia) is 93 % of control.
`CC(=O)/C(N=Nc1ccc(S(=O)(=O)c2ccc(N=N/C(C(C)=O)=C(/C)O)cc2)cc1)=C(\C)O`: the T/C runs as follows: under setting [4], 100 % of control; under setting [5], 93 % of control; under setting [6], 96 % of control.
In the same order, the values of `O=C(O)[C@H]1CC2CCC1C2` (stereo partly specified) are 98 % of control, 102 % of control and 93 % of control.
Turning to `CC(=O)OCC1OC([S][Sb]([CH3])[CH3])C(OC(C)=O)C(OC(C)=O)C1OC(C)=O` (stereo unspecified), the T/C by setting is: (dose: 12.5 mg/kg/injection, schedule: Q01DX009 (ip), vehicle: Klucel (hydroxypropylcellulose) (HPC)) 96 % of control; (dose: 25.0 mg/kg/injection, schedule: Q01DX009 (ip), vehicle: Klucel (hydroxypropylcellulose) (HPC)) 102 % of control; (dose: 50.0 mg/kg/injection, schedule: Q01DX009 (ip), vehicle: Klucel (hydroxypropylcellulose) (HPC)) 93 % of control.
Regarding `C/C(C(=O)O)=C(/Br)c1ccc([N+](=O)[O-])cc1`, the T/C is 94 % of control (dose: 100.0 mg/kg/injection, schedule: Q01DX009 (ip), vehicle: Klucel (hydroxypropylcellulose) (HPC)); 94 % of control (dose: 100.0 mg/kg/injection, schedule: Q04DX003 (ip), vehicle: Klucel (hydroxypropylcellulose) (HPC)); 95 % of control (dose: 200.0 mg/kg/injection, schedule: Q01DX009 (ip), vehicle: Klucel (hydroxypropylcellulose) (HPC)); 100 % of control (dose: 200.0 mg/kg/injection, schedule: Q04DX003 (ip), vehicle: Klucel (hydroxypropylcellulose) (HPC)); 92 % of control (dose: 400.0 mg/kg/injection, schedule: Q01DX009 (ip), vehicle: Klucel (hydroxypropylcellulose) (HPC)); 100 % of control (dose: 400.0 mg/kg/injection, schedule: Q04DX003 (ip), vehicle: Klucel (hydroxypropylcellulose) (HPC)).
As to `CCN(CC)S(=O)(=O)c1cccc(C(=O)CC(O)(C(F)(F)F)C(F)(F)F)c1`, the T/C was 94 % of control under setting [4], 102 % of control under setting [5] and 108 % of control under setting [6].
Regarding `Cc1cn(C2CCCCO2)c(=O)nc1NO` (stereo unspecified), the T/C was 95 % of control under setting [1], 90 % of control under setting [2] and 108 % of control under setting [3].
As to `CCCOP(=O)(OCCC)C(OC(=O)C(C)(C)Br)=C(C)C`, the T/C runs as follows: under setting [4], 100 % of control; under setting [5], 100 % of control; under setting [6], 100 % of control.
Regarding `OCC(O)C(O)C(O)C(O)C(c1ccccc1)c1ccccc1` (stereo unspecified), the T/C is 107 % of control under setting [7], 103 % of control under setting [8], 101 % of control under setting [9] and 101 % of control under setting [10].
Consider `C#CCn1cnc2c(Cl)ncnc21`, for which the T/C was 117 % of control under setting [8], 97 % of control under setting [9] and 103 % of control under setting [10].
Take `CC(C)COC(=O)C1(N)CCCC1`: the T/C is 113 % of control (dose: 30.0 mg/kg/injection, schedule: Q01DX Z (ip), vehicle: saline); 109 % of control (dose: 45.0 mg/kg/injection, schedule: Q01DX009 (ip), vehicle: saline); 121 % of control (dose: 45.0 mg/kg/injection, schedule: Q01DX Z (ip), vehicle: saline); 114 % of control (dose: 66.0 mg/kg/injection, schedule: Q01DX009 (ip), vehicle: saline); 114 % of control and 118 % of control (dose: 150.0 mg/kg/injection, schedule: Q01DX Z (ip), vehicle: saline); 120 % of control (dose: 224.0 mg/kg/injection, schedule: Q01DX Z (ip), vehicle: saline). The T/C (dose: 336.0 mg/kg/injection, schedule: Q01DX Z (ip), vehicle: saline) was 103 % of control.
Turning to `C1CCC(CCCCC2CCC(CCCCC3CCCCC3)CC2)CC1` (stereo unspecified), the T/C by setting is: under setting [4], 91 % of control; under setting [5], 93 % of control; under setting [6], 96 % of control.
As for `OCC1OC(n2cnc3c(=S)nc[nH]c32)CC1O` (stereo unspecified), the T/C (dose: 8.0 mg/kg/injection, schedule: Q01DX015 (ip), vehicle: saline) was 103 % of control; the T/C (dose: 16.0 mg/kg/injection, schedule: Q01DX015 (ip), vehicle: saline) is 108 % of control; the T/C (dose: 32.0 mg/kg/injection, schedule: Q01DX015 (ip), vehicle: saline) is 115 % of control; the T/C under setting [7] was 104 % of control; the T/C (dose: 64.0 mg/kg/injection, schedule: Q01DX015 (ip), vehicle: saline) is 122 % of control; the T/C under setting [8] is 106 % of control. In addition, the T/C by setting is: (dose: 178.0 mg/kg/injection, schedule: Q01DX001 (ip), vehicle: saline) 113 % of control; (dose: 180.0 mg/kg/injection, schedule: Q01DX015 (ip), vehicle: saline) 156 % of control; under setting [9], 115 % of control; (dose: 267.0 mg/kg/injection, schedule: Q01DX001 (ip), vehicle: saline) 108 % of control; (dose: 300.0 mg/kg/injection, schedule: Q01DX015 (ip), vehicle: saline) 154 % of control and 156 % of control; under setting [10], 121 % of control. Under “dose: 600.0 mg/kg/injection, schedule: Q01DX015 (ip), vehicle: saline”, the T/C was 163 % of control.
As for `O=C(Nc1ccc(CCO)cc1)Nc1ccccc1C(F)(F)F`, the T/C under setting [11] was 97 % of control; the T/C (dose: 200.0 mg/kg/injection, schedule: Q01DX009 (ip), vehicle: saline with Tween-80) is 90 % of control; the T/C (dose: 400.0 mg/kg/injection, schedule: Q01DX009 (ip), vehicle: saline with Tween-80) was 92 % of control.
For `CC(=O)OC1CCC2(C)C(=CCC3C2CCC2(C)c4c(c(-c5ccccc5)nn4-c4ccccc4)CC32)C1` (stereo unspecified), the T/C under setting [12] is 98 % of control, the T/C under setting [13] was 90 % of control and the T/C under setting [14] was 95 % of control.
On to `c1ccc([CH2][Pb]([c]2ccccc2)([c]2ccccc2)[c]2ccccc2)cc1`, for which the T/C reads like this: (dose: 25.0 mg/kg/injection, schedule: Q01DX009 (ip), vehicle: saline with Tween-80) 93 % of control; (dose: 50.0 mg/kg/injection, schedule: Q01DX009 (ip), vehicle: saline with Tween-80) 94 % of control; under setting [11], 96 % of control; (dose: 200.0 mg/kg/injection, schedule: Q01DX001 (ip), vehicle: saline with Tween-80) 108 % of control; (dose: 400.0 mg/kg/injection, schedule: Q01DX001 (ip), vehicle: saline with Tween-80) 97 % of control.
As to `CCOC(=O)CCc1cc2cc(C)nnc2[nH]1`, the T/C was 95 % of control under setting [12], 91 % of control under setting [13] and 106 % of control under setting [14].
